Laboratory results reported in ChEMBL document CHEMBL2069291, “Orally available pyridinylpyrimidine derivatives as novel RANKL-induced osteoclastogenesis inhibitors” (Bioorg Med Chem Lett, 2012).

Experiments:
[1] = Cmax in female C57BL/6 mouse at 3 mg/kg, po administered as single dose; type: ADME, organism-based; set-up: dose 3 mg/kg, route oral; settings: in vivo
[2] = Cmax in ovariectomized Wistar rat at 3 mg/kg, po administered as single dose; type: ADME, organism-based; set-up: dose 3 mg/kg, route oral; settings: female, in vivo
[3] = AUC (0 to infinity) in female C57BL/6 mouse at 3 mg/kg, po administered as single dose; type: ADME, organism-based; set-up: dose 3 mg/kg, route oral, time infinity; settings: plasma
[4] = AUC (0 to infinity) in ovariectomized Wistar rat at 3 mg/kg, po administered as single dose; type: ADME, organism-based; set-up: dose 3 mg/kg, route oral, time infinity; settings: female, plasma
[5] = Permeability of the compound by PAMPA assay; type: ADME; settings: read-out: permeability
[6] = Solubility in phosphate buffer at pH 6.8; type: physicochemical
[7] = AUC (0 to infinity) in female C57BL/6 mouse at 1 mg/kg, po administered as single dose; settings: plasma
[8] = Cmax in female C57BL/6 mouse at 1 mg/kg, po administered as single dose; settings: in vivo

Cmax [1]	Cmax [2]	AUC(0-inf) [3]	AUC(0-inf) [4]	Papp [5]	solubility [6]	AUC(0-inf) [7]	Cmax [8]	SMILES
130 ng/mL	49 ng/mL	240 ng·h/mL	151 ng·h/mL	> 30 ×10⁻⁶ cm/s	> 25 µg/mL	–	–	COc1cnc(-c2ccccn2)nc1NCc1ccccc1F
98 ng/mL	135 ng/mL	188 ng·h/mL	542 ng·h/mL	> 30 ×10⁻⁶ cm/s	> 25 µg/mL	–	–	COc1cnc(-c2ccccn2)nc1NCc1c(F)cc(F)cc1F
599 ng/mL	156 ng/mL	1020 ng·h/mL	943 ng·h/mL	> 30 ×10⁻⁶ cm/s	> 25 µg/mL	–	–	COc1cnc(-c2ccccn2)nc1NCc1ccc(F)cc1C(F)(F)F
–	–	–	–	–	–	15 ng·h/mL	7 ng/mL	COc1cnc(-c2ccccn2)nc1N1CCCC1
